Results as given in publication PMC3758303 (PLoS ONE, 2013).

Assays:
[1] = WST-1 cell proliferation assay, ORL11 cells; assay type: cell-based; conditions: human
Protocol: (§1) The WST-1 cell proliferation assay was performed as described previously. Briefly, The cells were plated onto 96-well plates (1×10^3 cells per well) in triplicate and then treated with each reagent at several concentrations for 72 hrs. After treatment, the cells were subjected to the WST-1 cell proliferation assay (Takara Bio, Otsu, Japan) according to the manufacturer’s protocol. This assay is based on the enzymatic cleavage of the tetrazolium salt WST-1 to formazan by cellular mitochondrial dehydrogenases present in viable cells. Therefore, there are […] the value of the WST-1 assay becomes zero. The experiments were performed at least in triplicate. From the assay results, the 50% cytotoxic concentration (CC50) of each reagent was determined.

[2] = test system: genome-length HCV-RNA (O strain of genotype 1b) replication in HuH-7-derived OR6 cells; assay: OR6 RL assay; assay type: cell-based, hepatitis C virus; conditions: for EC50: Hepatitis C virus, OR6 assay, HuH-7, HCV strain O, 72 hrs, RL assay
Protocol: (§2) RSc and D7 cells were derived from the cell lines HuH-7 and Li23, respectively, were cultured as described previously, [29]. HuH-7-derived OR6 [13], AH1R [30], and 1B-4R [Ikeda et al., submitted] cells harboring genome-length HCV-RNA and HuH-7-derived polyclonal sOR [31], and RSc-JRN/35B [Ikeda et al., submitted] cells harboring an HCV subgenomic replicon were cultured with medium in the presence of G418 (0.3 mg/ml; Geneticin, Invitrogen, Carlsbad, CA) as described previously. Li23-derived ORL8 [20], ORL11 [20], 1B-4RL [Ikeda et al., submitted], and KAH5RL [Ikeda et al., submitted] cells harboring genome-length HCV-RNA were maintained with medium in the presence of G418 (0.3 mg/ml) as described previously. Li23-derived polyclonal sORL8 and sORL11 cells harboring an HCV replicon, which were established by the transfection of ORN/3-5B/QR,KE,SR RNA into the cured OL8 and OL11 cells, respectively, were also cultured with medium in the presence of G418 (0.3 mg/ml) as described previously. Cured cells, from which the HCV-RNA had been eliminated by IFN treatment, were also maintained with medium in the absence of G418 as described previously. […] Therefore, when HCV-RNA is excluded from the cells or when its level is decreased, the cells are killed in the presence of G418.
RL assay was performed as described previously, [24]. Briefly, the cells were plated onto 24-well plates (2×10^4 cells per well) in triplicate and then treated with each reagent at several concentrations for 72 hrs. After treatment, the cells were subjected to luciferase assay using the RL assay system (Promega, Madison, WI). The experiments were performed at least in triplicate. From the assay results, the 50% effective concentration (EC50) of each reagent was determined.
(§3) The SI value of each reagent was determined by dividing the CC50 value by the EC50 value.

[3] = test system: genome-length HCV-RNA (1B-4 strain of genotype 1b) replication in Li23-derived 1B-4RL cells; assay: 1B-4RL RL assay; assay type: cell-based; conditions: Hepatitis C virus, 1B-4RL assay, Li23, HCV strain 1B-4, 72 hrs
Protocol: as §2, with “G418. […]” for “G418.”
as §3

malaria parasites = test system: malaria parasites; design: method as in PMID 21501696, PMID 21924377; conditions: compared with N-89; cited from earlier work
[4] = WST-1 cell proliferation assay, AH1R cells; assay type: cell-based; conditions: human
Protocol: as §1

[5] = WST-1 cell proliferation assay, ORL8 cells; assay type: cell-based; conditions: human
Protocol: as §1

[6] = test system: subgenomic HCV-JFH-1 replicon in RSc-JRN/35B cells; assay: RSc-JRN/35B RL assay; assay type: cell-based, hepatitis C virus
Protocol: RSc and D7 cells were derived from the cell lines HuH-7 and Li23, respectively, were cultured as described previously, [29]. HuH-7-derived OR6 [13], AH1R [30], and 1B-4R [Ikeda et al., submitted] cells harboring genome-length HCV-RNA and HuH-7-derived polyclonal sOR [31], and RSc-JRN/35B [Ikeda et al., submitted] cells harboring an HCV subgenomic replicon were cultured with medium in the presence of G418 (0.3 mg/ml; Geneticin, Invitrogen, Carlsbad, CA) as described previously. Li23-derived ORL8 [20], ORL11 [20], 1B-4RL [Ikeda et al., submitted], and KAH5RL [Ikeda et al., submitted] cells harboring genome-length HCV-RNA were maintained with medium in the presence of G418 (0.3 mg/ml) as described previously. Li23-derived polyclonal sORL8 and sORL11 cells harboring an HCV replicon, which were established by the transfection of ORN/3-5B/QR,KE,SR RNA into the cured OL8 and OL11 cells, respectively, were also cultured with medium in the presence of G418 (0.3 mg/ml) as described previously. […]
(§4) We next examined whether N-89 and N-251 worked in an HCV production system using HCV-JFH-1 strain (genotype 2a). […] To clarify whether anti-HCV activity depends on the difference of genotype or assay model, we evaluated the activities of N-89 and N-251 using RSc-JRN/35B [Ikeda et al., submitted] cells harboring a subgenomic HCV-JFH-1 replicon as an additional assay.

[7] = test system: genome-length HCV-RNA (KAH5 strain of genotype 1b) replication in Li23-derived KAH5RL cells; assay: KAH5RL RL assay; assay type: cell-based; conditions: Hepatitis C virus, Li23, HCV strain KAH5, 72 hrs
Protocol: as §2, with “G418. […]” for “G418.”
as §3

[8] = WST-1 cell proliferation assay, 1B-4R cells; assay type: cell-based; conditions: human
Protocol: as §1

[9] = Viability of RSc-JRN/35B cells (WST-1, trypan blue cell counting); assay type: cell-based, human; conditions: human, read-out: viable cells by cell counting after trypan blue dye treatment
Protocol: as §1, §4

RSc-JRN/35B cells = assay: as above; assay type: cell-based, human; conditions: 10 µM
Protocol: as §1, §4

rats = test system: rats; design: method as in PMID 11428929, PMID 17273878, PMID 12723958; conditions: cited from earlier work
[10] = test system: HCV-RNA replication in ORL8 cells; assay: Comparative time course RL assay in ORL8 cells; assay type: cell-based, hepatitis C virus
Protocol: We next performed a time course assay (2 to 72 hrs after treatment) in the case of ORL8 cells treated with N-89 (0.1 µM or 1 µM) or IFN-α (1 IU/ml; corresponding to approximately EC80). ORL8 cells treated with IFN-α (1 IU/ml) and N-89 (1 µM) had almost the same anti-HCV kinetics over the first […] after treatment (upper panel of Fig. 4); however, within the first 12 hrs after treatment N-89-treated ORL8 cells had more rapid anti-HCV kinetics than did the IFN-α-treated cells (lower panel of Fig. 4).
Figure 4 The anti-HCV action of N-89 was faster than that of IFN-α. The ORL8 cells were treated with N-89 or IFN-α, and then RL assays were performed at 2 to 72 hrs after the treatment. The relative value (%) calculated at each time point, when the luciferase activity of non-treated cells at 24 hrs was assigned as 100%, is shown. Data are expressed as the means±standard deviation of triplicate assays. […] To evaluate this possibility, we examined the effect of VE on N-89 at the EC90 level in the ORL8 assay. […] Similar results were obtained by using N-251 (Fig. 5C and D). […] However, an antimalarial drug, artemisinin, was hardly influenced by co-treatment with VE (Fig. 5E). The value (1.9) of artemisinin was almost the same as that (3.5 or 2.5) of IFN-α or the control, respectively (Fig. 5F).

Plasmodium falciparum = test system: Plasmodium falciparum; design: method as in PMID 11428929, PMID 17273878, PMID 12723958; conditions: cited from earlier work

Row | Compound | CC50 at 72 h [1] [nM] | EC50 [2] [nM] | EC50 [3] [nM] | potency against malaria parasites (malaria parasites) | CC50 at 72 h [4] [nM] | CC50 at 72 h [5] [nM] | anti-HCV activity, subgenomic HCV-JFH-1 replicon [6] | EC50 [7] [nM] | CC50 at 72 h [8] [nM] | viability at 10 µM [9] [%] | relative value of WST-1 (RSc-JRN/35B cells) | 50% lethal dose (rats) [mg/kg] | anti-HCV activity (suppression) ([2]; 8 µM in OR6 cells, without a decrease in cell viability) [%] | time after treatment at which RL activity was significantly decreased ([10]; 0.1 µM) [h] | time after treatment at which RL activity was significantly decreased ([10]; 1 µM) [h] | antimalarial activity in vitro (Plasmodium falciparum)
1 | OCCCCCCC1COOC2(CCCCCCCCCCC2)OOC1 [N-251, 6-(1,2,6,7-tetraoxaspiro[7.11]nonadec-4-yl)hexan-1-ol] | 1100 | 690 | 230 | as potent as N-89 | 490 | 1300 | did not show any anti-HCV activities | 290 | 3800 | ~30 | almost became zero |  |  |  |  | 
2 | C1CCCCCC2(CCCCC1)OOCCCOO2 [N-89, 1,2,6,7-Tetraoxaspiro[7.11]nonadecane] | 560 | 660 | 120 |  | > 500 | 2300 | did not show any anti-HCV activities | 190 | 9300 |  |  | > 2000 | > 99 | 9 | 6 | potent antimalarial activity
